Test results from patent US8466161B2, “Hydroxamate derivative, a production method for the same, and a pharmaceutical composition comprising the same” (Chong Kun Dang Pharmaceutical Corp., priority 2009, dated 2013).

tested on: HL60 cell line; test: Inhibitory effect on growth of HL60 cell line (MTT); format: cell-based; conditions: Homo sapiens, HL-60, 72 h, 3 days culture
Protocol: In the culture of HL60 cells, 10% FBS-containing RPMI1640 medium was used Each of test substances was serially diluted in DMSO to a concentration of 10 mg/ml and serially diluted in PBS to a final concentration ranging from 100 μg/ml to 0.03 μg/ml. 20 μl (micro-liter) of each of the serially diluted test substances and 180 μl (micro-liter) of a medium containing 60×10^4 cells/ml were added to a 96-well plate and cultured under conditions of 37° C. and 5% CO2 for 3 days. After completion of the culture, 50 μl (micro-liter) of a solution of 1.25 mg/ml MTT (3-(4,5-dimethylthiazol-2-yl)-2,5-diphenyltetrazolium bromide) in PBS was added to each well of the plate and incubated at 37° C. for 3 hours. The formed formazan crystal was dissolved in 150 μl (micro-liter) of DMSO, and the absorbance at 570 nm was measured.

Compound | IC50 [nM]
COc1cccc(NC(=O)N(CCCCCCC(=O)NO)c2ccc(-c3ccc4cc[nH]c4c3)cc2)c1 [Compound 256, 7-(1-(4-(1H-indol-6-yl)phenyl)-3-(3-methoxyphenyl)ureido)-N-hydroxyheptanamide] | 50 to 100
COc1cc(NC(=O)N(CCCCCCC(=O)NO)c2ccc(-c3ccc4cc[nH]c4c3)cc2)cc(OC)c1 [Compound 260, 7-(1-(4-(1H-indol-6-yl)phenyl)-3-(3,5-dimethoxyphenyl)ureido)-N-hydroxyheptanamide] | 50 to 100
CN(C)CC(=O)N(CCCCCCC(=O)NO)c1ccc(-c2ccc3cc[nH]c3c2)cc1 [Compound 265, 7-(N-(4-(1H-indol-6-yl)phenyl)-2-(dimethylamino)acetamido)-N-hydroxyheptanamide] | 50 to 100
CCOC(=O)N(CCCCCCC(=O)NO)c1ccc(-c2ccc3cc[nH]c3c2)cc1 [Compound 267, Ethyl 4-(1H-indol-6-yl)phenyl(7-(hydroxyamino)-7-oxoheptyl)carbamate] | 50 to 100
Cn1ncc2ccc(-c3ccc(N(CCCCCCC(=O)NO)C(=O)c4cccnc4)cc3)cc21 [Compound 270, N-(7-(hydroxyamino)-7-oxoheptyl)-N-(4-(1-methyl-1H-indazol-6-yl)phenyl)nicotinamide] | 50 to 100
CNC(=O)N(CCCCCCC(=O)NO)c1ccc(-c2ccc3cc[nH]c3c2)cc1 [Compound 275, 7-(1-(4-(1H-indol-6-yl)phenyl)-3-methylureido)-N-hydroxyheptanamide] | 50 to 100
CN(C)S(=O)(=O)N(CCCCCCC(=O)NO)c1ccc(-c2ccc3cc[nH]c3c2)cc1 [Compound 277, 7-((4-(1H-indol-6-yl)phenyl)(N,N-dimethylsulfamoyl)amino)-N-hydroxyheptanamide] | 50 to 100
Cn1ncc2ccc(-c3ccc(N(CCCCCCC(=O)NO)S(C)(=O)=O)cc3)cc21 [Compound 284, N-hydroxy-7-(N-(4-(1-methyl-1H-indazol-6-yl)phenyl)methylsulfonamido)heptanamide] | 50 to 100
CCNC(=O)N(CCCCCCC(=O)NO)c1ccc(-c2ccc3cc[nH]c3c2)cc1 [Compound 295, 7-(1-(4-(1H-indol-6-yl)phenyl)-3-ethylureido)-N-hydroxyheptanamide] | 50 to 100
Cc1cc2cc(-c3ccc(N(CCCCCCC(=O)NO)S(C)(=O)=O)cc3)ccc2[nH]1 [Compound 296, N-hydroxy-7-(N-(4-(2-methyl-1H-indol-5-yl)phenyl)methylsulfonamido)heptanamide] | 50 to 100
Cn1ncc2ccc(-c3ccc(N(CCCCCCC(=O)NO)S(C)(=O)=O)cn3)cc21 [Compound 327, N-hydroxy-7-(N-(6-(1-methyl-1H-indazol-6-yl)pyridin-3-yl)methylsulfonamido)heptanamide] | 50 to 100
CN1CCCN(C(=O)N(CCCCCCC(=O)NO)c2ccc(-c3ccc4cc[nH]c4c3)cc2)CC1 [Compound 330, N-(4-(1H-indol-6-yl)phenyl)-N-(7-(hydroxyamino)-7-oxoheptyl)-4-methyl-1,4-diazepane-1-carboxamide] | 50 to 100

The next lines start with the values.

IC50 [nM] | Compound
20 to 50 | COc1ccc(C(=O)N(CCCCCCC(=O)NO)c2ccc(-c3ccc4cc[nH]c4c3)cc2)cc1 [Compound 180, N-(4-(1H-indol-6-yl)phenyl)-N-(7-(hydroxyamino)-7-oxoheptyl)-4-methoxybenzamide]
20 to 50 | O=C(CCCCCCN(C(=O)c1cccnc1)c1ccc(-c2ccc3cc[nH]c3c2)cc1)NO [Compound 181, N-(4-(1H-indol-6-yl)phenyl)-N-(7-(hydroxyamino)-7-oxoheptyl)nicotinamide]
50 to 100 | O=C(CCCCCCN(C(=O)c1ccccn1)c1ccc(-c2ccc3cc[nH]c3c2)cc1)NO [Compound 211, N-(4-(1H-indol-6-yl)phenyl)-N-(7-(hydroxyamino)-7-oxoheptyl)picolinamide]
20 to 50 | O=C(CCCCCCN(c1ccc(-c2ccc3cc[nH]c3c2)cc1)S(=O)(=O)c1cccnc1)NO [Compound 263, 7-(N-(4-(1H-indol-6-yl)phenyl)pyridine-3-sulfonamido)-N-hydroxyheptanamide]
20 to 50 | CS(=O)(=O)N(CCCCCCC(=O)NO)c1ccc(-c2ccc3cc[nH]c3c2)cc1 [Compound 264, 7-(N-(4-(1H-indol-6-yl)phenyl)methylsulfonamido)-N-hydroxyheptanamide]
20 to 50 | CCS(=O)(=O)N(CCCCCCC(=O)NO)c1ccc(-c2ccc3cc[nH]c3c2)cc1 [Compound 276, 7-(N-(4-(1H-indol-6-yl)phenyl)ethylsulfonamido)-N-hydroxyheptanamide]
10 to 20 | CS(=O)(=O)N(CCCCCCC(=O)NO)c1ccc(-c2ccc3[nH]ccc3c2)cc1 [Compound 303, 7-(N-(4-(1H-indol-5-yl)phenyl)methylsulfonamido)-N-hydroxyheptanamide]
20 to 50 | O=C(CCCCCCN(C(=O)c1ccccn1)c1ccc(-c2ccc3[nH]ccc3c2)cc1)NO [Compound 305, N-(4-(1H-indol-5-yl)phenyl)-N-(7-(hydroxyamino)-7-ooxheptyl)picolinamide]
10 to 20 | O=C(CCCCCCN(C(=O)N1CCOCC1)c1ccc(-c2ccc3cc[nH]c3c2)cc1)NO [Compound 306, N-(4-(1H-indol-6-yl)phenyl)-N-(7-(hydroxyamino)-7-oxoheptyl)morpholine-4-carboxamide]
10 to 20 | CN1CCN(C(=O)N(CCCCCCC(=O)NO)c2ccc(-c3ccc4cc[nH]c4c3)cc2)CC1 [Compound 309, N-(4-(1H-indol-6-yl)phenyl)-N-(7-(hydroxyamino)-7-oxoheptyl)-4-methylpiperazine-1-carboxamide]
20 to 50 | CN1CCN(C(=O)N(CCCCCCC(=O)NO)c2ccc(-c3ccc4[nH]ccc4c3)cc2)CC1 [Compound 313, N-(4-(1H-indol-5-yl)phenyl)-N-(7-(hydroxyamino)-7-oxoheptyl)-4-methylpiperazine-1-carboxamide]
20 to 50 | CCS(=O)(=O)N(CCCCCCC(=O)NO)c1ccc(-c2ccc3[nH]ccc3c2)cc1 [Compound 314, 7-(N-(4-(1H-indol-5-yl)phenyl)ethylsulfonamido)-N-hydroxyheptanamide]
20 to 50 | CS(=O)(=O)N(CCCCCCC(=O)NO)c1ccc(-c2ccc3cc[nH]c3c2)nc1 [Compound 326, 7-(N-(6-(1H-indol-6-yl)pyridin-3-yl)methylsulfonamido)-N-hydroxyheptanamide]
20 to 50 | CS(=O)(=O)N(CCCCCCC(=O)NO)c1ccc(-c2ccc3[nH]ccc3c2)nc1 [Compound 328, 7-(N-(6-(1H-indol-5-yl)pyridin-3-yl)methylsulfonamido)-N-hydroxyheptanamide]
10 to 20 | CCN1CCN(C(=O)N(CCCCCCC(=O)NO)c2ccc(-c3ccc4[nH]ccc4c3)cc2)CC1 [Compound 340, N-(4-(1H-indol-5-yl)phenyl)-4-ethyl-N-(7-(hydroxyamino)-7-oxoheptyl)piperazine-1-carboxamide]
20 to 50 | CN1CCN(C(=O)N(CCCCCCC(=O)NO)c2ccc(-c3ccc4c(ccn4C)c3)cc2)CC1 [Compound 341, N-(7-(hydroxyamino)-7-oxoheptyl)-4-methyl-N-(4-(1-methyl-1H-indol-5-yl)phenyl)piperazine-1-carboxamide]
20 to 50 | CN1CCN(S(=O)(=O)N(CCCCCCC(=O)NO)c2ccc(-c3ccc4cnn(C)c4c3)cc2)CC1 [Compound 342, N-hydroxy-7-(4-methyl-N-(4-(1-methyl-1H-indazol-6-yl)phenyl)piperazine-1-sulfonamido)heptanamide]
